The values below come from US20090042818A1, “Liquiritigenin and Derivatives as Selective Estrogen Receptor Beta Agonists” (BIONOVO, INC., priority 2007, published 2009).

Molecules are shown by their SMILES. “Also recorded” adds a separate entry of the source.

In one data set the test system is ERα and ERβ. Conditions: cited from earlier work.
Data set [1] deals with MCF-7 breast cancer cells. The experiment in a line: MCF-7 xenograft under kidney capsule of nude mice, tumor growth. The data set is classed as in vivo. The settings on record: 30 days; for tumor growth of MCF-7 grafts: subcutaneous osmotic pump, E2 0.4 mg, liquiritigenin 2 mg. As for the experimental part: (§1) MCF-7 (250,000) cells were aggregated in suspension and then resuspended in 200 μL neutralized collagen, as previously described (Parmar et al., Endocrinology 143:4886-4896 (2002). The cells were then grafted under the kidney capsule of nude mice as described and illustrated in detail at: http://mammary.nih.gov/tools/mousework/Cunha001/index.html. Five mice per group were treated with a continuous infusion using osmotic pumps (Alzet, Cupertino, Calif.) containing vehicle, E2 (0.4 mg) or liquiritigenin (2 mg) that infused 2.5 μl/h for 1 month. After one month of treatment, the tumors and uteri were removed and analyzed. These animal studies were carried out with approval from the University of California, San Francisco Committee on Animal Research. The major concern with estrogens for menopausal symptoms is the proliferation of breast and endometrial cells causing an increased risk for breast and uterine cancer. To determine if liquiritigenin has a proliferative effect on breast cancer and endometrial cells, MCF-7 breast cancer cells were grafted under the kidney capsule of nude mice. Using a subcutaneous osmotic pump designed to deliver a steady dose of drug, the mice were treated for 30 days with vehicle, E2, or liquiritigenin.

Data set [2] concerns mammary and uterine tissue. Conditions: rat, in vivo; cited from earlier work.
Data set [3] concerns the target T1, ERα (Homo sapiens, UniProt P03372).
T1 sequence (P03372 1-595): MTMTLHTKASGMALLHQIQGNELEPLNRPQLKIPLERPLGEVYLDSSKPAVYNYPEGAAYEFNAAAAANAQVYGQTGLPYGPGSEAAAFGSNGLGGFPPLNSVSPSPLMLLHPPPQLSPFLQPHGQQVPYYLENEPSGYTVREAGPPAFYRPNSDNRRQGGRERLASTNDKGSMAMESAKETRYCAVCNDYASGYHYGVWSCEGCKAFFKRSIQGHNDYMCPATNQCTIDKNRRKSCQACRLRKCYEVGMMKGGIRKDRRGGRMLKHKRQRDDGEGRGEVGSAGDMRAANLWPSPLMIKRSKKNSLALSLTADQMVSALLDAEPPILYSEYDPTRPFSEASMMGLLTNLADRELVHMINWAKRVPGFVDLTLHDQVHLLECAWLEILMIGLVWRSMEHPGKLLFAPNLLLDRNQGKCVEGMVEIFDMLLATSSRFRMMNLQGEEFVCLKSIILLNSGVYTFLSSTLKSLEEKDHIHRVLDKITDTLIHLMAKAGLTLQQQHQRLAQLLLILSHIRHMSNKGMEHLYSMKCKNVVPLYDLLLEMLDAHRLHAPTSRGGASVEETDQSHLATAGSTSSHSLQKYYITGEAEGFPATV
The experiment in a line: Native ER regulatory element (CECR6, NKG2E, NKD) tk-Luc transfection assay with ERα. Set-up: expressed in transfected cells; host or cells: U2OS. The class given is cell-based. From the text: In addition to the traditional ERE, it is important to determine if liquiritigenin selectivity activates ERβ in elements derived from native ER target genes. ER regulatory elements from the cat eye syndrome chromosome region candidate 6 (CECR6), killer cell lectin-like receptor (NKG2E) and the naked cuticule homolog (NKD) genes that are activated by E2 Levy et al., Endocrinology doi:10.1210/en.2006-1632 (2007)) were used. CECR6-tk-Luc (A), NKG2E-tk-Luc (B), and NKD-tk-Luc (C) were transfected into U2OS cells with expression vectors for human ERα or ERβ. […] Liquiritigenin produced a dose-dependent activation of CECR6, NKG2E, and NKD with ERβ but not with ERα (FIGS. 4A, 4B, 4C, respectively). The cells were then treated for increasing times with liquiritigenin.

The target in data set [4] is T2, glucocorticoid receptor (GR) (Homo sapiens, UniProt P04150).
T2 sequence (P04150 1-777): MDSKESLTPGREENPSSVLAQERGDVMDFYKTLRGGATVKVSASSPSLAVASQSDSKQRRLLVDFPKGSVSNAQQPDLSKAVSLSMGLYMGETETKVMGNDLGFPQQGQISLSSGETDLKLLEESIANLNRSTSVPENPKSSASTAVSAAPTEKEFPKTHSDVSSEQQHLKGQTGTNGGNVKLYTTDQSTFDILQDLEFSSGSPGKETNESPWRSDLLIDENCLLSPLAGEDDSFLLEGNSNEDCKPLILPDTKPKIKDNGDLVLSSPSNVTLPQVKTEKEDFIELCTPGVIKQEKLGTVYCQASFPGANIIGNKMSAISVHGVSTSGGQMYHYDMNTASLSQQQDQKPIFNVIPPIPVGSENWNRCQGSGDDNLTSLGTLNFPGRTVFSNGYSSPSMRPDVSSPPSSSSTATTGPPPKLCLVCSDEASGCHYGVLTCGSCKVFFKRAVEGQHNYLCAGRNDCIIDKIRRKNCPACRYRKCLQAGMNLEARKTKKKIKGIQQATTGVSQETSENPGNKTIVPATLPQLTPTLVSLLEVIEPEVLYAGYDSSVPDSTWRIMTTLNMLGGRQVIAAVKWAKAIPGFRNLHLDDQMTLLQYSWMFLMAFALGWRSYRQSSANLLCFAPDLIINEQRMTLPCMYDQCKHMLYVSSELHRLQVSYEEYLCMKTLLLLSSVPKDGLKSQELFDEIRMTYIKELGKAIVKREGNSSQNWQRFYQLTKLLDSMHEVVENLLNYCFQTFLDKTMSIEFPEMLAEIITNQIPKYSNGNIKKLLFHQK
The experiment in a line: MMTV-luciferase transfection assay with glucocorticoid receptor in U2OS cells. Conditions: 2.5 μM, 18 h.

The test system of a further data set is uterus. The experiment in a line: MCF-7 xenograft study in nude mice, uterine horn mass. The data set is classed as in vivo. Conditions: osmotic pump, 30 days, E2 0.4 mg, liquiritigenin 2 mg. As for the experimental part: as §1
A further data set deals with T3, androgen receptor (AR) (Homo sapiens, UniProt P10275).
T3 sequence (P10275 1-920): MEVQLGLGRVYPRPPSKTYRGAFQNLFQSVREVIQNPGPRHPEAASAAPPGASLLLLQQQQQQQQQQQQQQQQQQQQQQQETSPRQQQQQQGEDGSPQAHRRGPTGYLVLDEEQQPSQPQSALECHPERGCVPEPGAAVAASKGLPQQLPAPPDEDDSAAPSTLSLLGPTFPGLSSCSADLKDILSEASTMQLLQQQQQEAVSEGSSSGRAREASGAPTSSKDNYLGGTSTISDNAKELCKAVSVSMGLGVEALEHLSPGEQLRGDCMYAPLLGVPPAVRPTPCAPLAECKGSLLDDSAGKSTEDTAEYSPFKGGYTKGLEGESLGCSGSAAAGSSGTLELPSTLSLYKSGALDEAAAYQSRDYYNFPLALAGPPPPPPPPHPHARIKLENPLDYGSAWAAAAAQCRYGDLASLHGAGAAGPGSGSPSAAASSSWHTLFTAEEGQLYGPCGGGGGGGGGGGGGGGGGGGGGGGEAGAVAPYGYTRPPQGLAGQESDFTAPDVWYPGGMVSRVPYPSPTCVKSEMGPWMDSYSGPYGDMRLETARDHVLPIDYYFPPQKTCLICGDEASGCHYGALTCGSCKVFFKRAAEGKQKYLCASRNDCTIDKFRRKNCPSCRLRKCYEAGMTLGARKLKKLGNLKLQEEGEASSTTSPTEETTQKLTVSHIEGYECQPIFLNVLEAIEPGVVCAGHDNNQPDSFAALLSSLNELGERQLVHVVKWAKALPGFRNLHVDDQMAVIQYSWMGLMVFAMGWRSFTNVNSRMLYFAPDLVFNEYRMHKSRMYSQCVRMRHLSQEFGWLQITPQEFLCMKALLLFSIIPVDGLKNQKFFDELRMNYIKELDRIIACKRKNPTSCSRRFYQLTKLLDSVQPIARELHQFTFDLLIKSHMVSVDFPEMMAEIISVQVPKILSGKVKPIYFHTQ
The experiment in a line: TAT3-luciferase transfection assay with androgen receptor in U2OS cells. The settings on record: 2.5 μM, 18 h.

Data set [5] has as its target T4, progesterone receptor B (PR) (Homo sapiens, UniProt P06401).
T4 sequence (P06401 1-933): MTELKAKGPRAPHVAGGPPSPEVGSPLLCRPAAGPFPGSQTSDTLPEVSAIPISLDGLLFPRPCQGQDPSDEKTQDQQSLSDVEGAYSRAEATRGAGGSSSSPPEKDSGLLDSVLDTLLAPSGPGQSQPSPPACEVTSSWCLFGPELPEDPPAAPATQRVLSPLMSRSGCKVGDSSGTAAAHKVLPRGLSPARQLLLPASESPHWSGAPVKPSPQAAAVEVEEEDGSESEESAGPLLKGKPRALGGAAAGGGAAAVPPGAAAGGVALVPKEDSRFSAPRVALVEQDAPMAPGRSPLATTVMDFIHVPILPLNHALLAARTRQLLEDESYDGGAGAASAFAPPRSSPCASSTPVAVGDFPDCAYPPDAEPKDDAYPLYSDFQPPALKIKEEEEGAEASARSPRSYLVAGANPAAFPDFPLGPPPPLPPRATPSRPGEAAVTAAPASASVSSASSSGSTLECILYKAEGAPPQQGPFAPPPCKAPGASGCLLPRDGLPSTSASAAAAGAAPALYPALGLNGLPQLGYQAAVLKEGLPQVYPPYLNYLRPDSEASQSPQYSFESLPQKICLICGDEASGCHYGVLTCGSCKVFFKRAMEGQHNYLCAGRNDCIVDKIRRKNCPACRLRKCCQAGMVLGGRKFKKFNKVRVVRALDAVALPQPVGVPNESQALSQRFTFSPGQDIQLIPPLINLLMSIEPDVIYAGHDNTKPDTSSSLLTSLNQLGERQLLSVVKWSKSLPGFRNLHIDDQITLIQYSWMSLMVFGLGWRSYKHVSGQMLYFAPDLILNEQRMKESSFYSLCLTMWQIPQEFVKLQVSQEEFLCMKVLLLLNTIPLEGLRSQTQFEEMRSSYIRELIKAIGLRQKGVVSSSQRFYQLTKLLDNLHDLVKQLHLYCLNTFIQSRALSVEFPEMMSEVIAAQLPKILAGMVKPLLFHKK
The experiment in a line: TAT3-luciferase transfection assay with progesterone receptor B in U2OS cells. Conditions: 2.5 μM, 18 h.

The target in data set [6] is T1, ERα. The experiment in a line: Real-time PCR of native target gene mRNA in U2OS-ERα cells. The class given is cell-based. Set-up: expressed in transfected cells. Conditions: 1 μM. In general terms: In qPCR the cycle at which signal appears reflects the starting amount.
In data set [7] the target is T5, thyroid hormone receptor β1 (TR) (Homo sapiens, UniProt P10828).
T5 sequence (P10828 1-461): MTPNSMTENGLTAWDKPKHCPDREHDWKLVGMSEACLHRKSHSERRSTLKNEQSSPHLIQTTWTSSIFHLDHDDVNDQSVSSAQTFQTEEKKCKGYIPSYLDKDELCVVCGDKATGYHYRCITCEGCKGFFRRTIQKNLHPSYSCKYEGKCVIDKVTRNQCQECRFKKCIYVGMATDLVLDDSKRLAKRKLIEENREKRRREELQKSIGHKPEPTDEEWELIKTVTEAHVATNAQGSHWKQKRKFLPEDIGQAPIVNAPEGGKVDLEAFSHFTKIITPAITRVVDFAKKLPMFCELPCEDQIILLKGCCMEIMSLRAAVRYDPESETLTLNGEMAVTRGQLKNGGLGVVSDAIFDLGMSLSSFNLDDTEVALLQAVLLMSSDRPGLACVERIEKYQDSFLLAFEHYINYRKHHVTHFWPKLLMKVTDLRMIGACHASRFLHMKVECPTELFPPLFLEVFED
Description: F2-tkLuc transfection assay with thyroid hormone receptor β1 in U2OS cells. The settings on record: 2.5 μM, 18 h.

Where [8] appears, read: U2OS cells, 18 h, increasing amounts.

Turning to `O=c1c(-c2ccc(O)cc2)coc2cc(O)cc(O)c12` [genistein], in the data set with ERα and ERβ, the “binding affinity to ERβ compared to ERα” value was “higher affinity; also recorded: binds better to ERβ than ERα”.

For `C[C@]12CC[C@@H]3c4ccc(O)cc4CC[C@H]3[C@@H]1CC[C@@H]2O` [E2, 17β-Estra-1,3,5(10)-triene-3,17-diol, reference compound], the “tumor growth of MCF-7 grafts” value in [1] is “Large tumors developed; also recorded: causes the formation of large tumors”. Further, in the data set on ERα and ERβ, the “binding affinity to ERβ compared to ERα” value is listed as “equal affinity”.

Take `C=Cc1cc(O)cc2nc(-c3ccc(O)c(F)c3)oc12` [ERβ-041]: in [2], the “proliferative effects on mammary and uterine tissue” value is “does not elicit any proliferative effects”.

Turning to `O=C1C[C@@H](c2ccc(O)cc2)Oc2cc(O)ccc21` [liquiritigenin, (2S)-7-hydroxy-2-(4-hydroxyphenyl)-2,3-dihydro-4H-1-benzopyran-4-one], the “weight of the tumors compared to the control mice” value in data set [1] (osmotic pump, 2 mg) is on record as “no differences in the weight of the tumors”. Moreover, in data set [1], the “tumor growth of MCF-7 grafts” value is on record as “essentially no tumor growth; also recorded: does not stimulate breast cancer tumor formation”. The “activation of multiple ER regulatory elements” value at ERα [3] (1 μM, ERα) is “does not activate”. Also, at ERα [3] (setting [8]), the “activation of CECR6-tk-Luc with ERα” value was “not with ERα” and the “activation of NKD-tk-Luc with ERα” value is “not with ERα”. Moreover, the “activation of glucocorticoid receptor (luciferase)” value in [4] is on record as “did not activate”. Further, the uterine horn mass result in the data set with uterus was “did not increase uterine horn mass”. Besides, in the data set on uterus (listed as liquirtigenin), the uterine horn mass result was “does not increase the size of the uterus”. Also, at androgen receptor (AR), the “activation of androgen receptor (luciferase)” value is given as “did not activate”. The “activation of progesterone receptor B (luciferase)” value in data set [5] was “did not activate”. The “activation of endogenous genes in U2OS-ERα cells” value at ERα [6] is on record as “does not activate”. Besides, the “activation of thyroid hormone receptor (luciferase)” value in data set [7] was “did not activate”.
